In patent publication US9643971B2 (GALLEON PHARMACEUTICALS, INC., priority 2013, dated 2017):
Entries after “also recorded” stand apart in the source; their conditions may differ. Where a name gives a salt, the structure may show the parent alone. Read-outs that look alike come from different tables or passages of the source.

Tests used:
anesthetized rat = experiment: Anesthetized rat spirometry screening assay; assay type: in vivo
In short: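 Rats under urethane (1.5 g/kg i.v., after isoflurane induction) with femoral and tracheal cannulas; compounds given as i.v. bolus at 0.1 and 0.3 mg/kg with formulation-matched vehicle. RR, VT and minute volume from pneumotachometer airflow, in 30 s bins over 6 min post-dose; arterial blood gases taken pre- and 6 min post-dose.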

[1] = Pharmacokinetic and oral bioavailability in the rat; assay type: in vivo, Sprague-Dawley rats; conditions: Sprague-Dawley, plasma, oral gavage 10-30 mg/kg vs intravenous bolus 2-5 mg/kg
Experimental: Sprague-Dawley rats (200-300 g) were fed a standard laboratory rodent diet and housed in individual cages on a 12-hour light and 12-hour dark cycle with room temperature maintained at 22±3° C. and relative humidity at 50±20%. Rats were fasted overnight before dosing, with food returned after the 6 hour blood samples were obtained. Bedding was removed until after the 6 hour blood samples were obtained. Water was provided ad libitum throughout the study.
Dosing solution of test compound was prepared in desired oral formulation for oral administration via gavage needle at 10-30 mg/kg (10 mL/kg) to three or four rats. […]
Plasma samples (incurred study samples, calibration standards, quality controls) were normally prepared as follows. […] Calibration standards were typically prepared in the range of 2 ng/ml to 10 μg/mL for quantitation. […]
All pharmacokinetic parameters were determined based on a non-compartmental approach using WinNonlin software (Pharsight, Version 5.1). The terminal elimination half-life (t1/2) was calculated as ln2/λz using the slope (λz) from linear regression analysis of the terminal phase of the plasma concentration-time curve on a semi-log scale. […] The systemic plasma clearance (CLp) was calculated as intravenous dose divided by AUCinf. The volume of distribution at steady state (Vss) was determined as the product of CLp and MRT. […]

[2] = In vitro metabolic stability in human liver microsomes (HLM); conditions: for half-life at 5 μM: both, human; for HLM T½: human liver microsomes, 5 μM compound, NADPH, 37° C.
in vitro = conditions: male, rat, microsomes
[3] = rat, microsomes
[4] = In vitro metabolic stability in rat liver microsomes (RLM)
[5] = test system: rats chronically treated with morphine; experiment: Apnea, ventilation and sleep structure in rats chronically treated with morphine (whole-body plethysmography); assay type: in vivo, Zucker rats; conditions: oral gavage; for apnea frequency / number of apneas per hr expressed as a percent change from baseline (pre-drug): versus treatment with a vehicle
Excerpt: The objective of this study was to quantify the effects of selected compounds of this invention on apnea, ventilation and sleep structure in a rat model. The study consisted of two treatment conditions: (1) chronic morphine and test compound administered orally, and (2) chronic morphine and oral vehicle.
Adult male lean Zucker rats were anesthetized for electroencephalogram (EEG) and electromyogram (EMG) telemeter implantation. At least one week was permitted post-surgery before animals were used further. Morphine sulfate was added to the drinking water of singly housed rats beginning with 0.1 mg/ml morphine and increasing the concentration in increments, so that a final concentration of 0.6 mg/ml was achieved within 2 weeks. All respiratory measurements were made while animals were unrestrained in whole-body plethysmography chambers to permit animals to sleep and move freely. To avoid eliciting withdrawal, morphine water was continuously available during each plethysmography experiment. Minute volume and the number of central sleep apneas (CSA) were measured during all treatment conditions. A period of at least 1 to 1.5 h was permitted for animals to acclimate to the chamber before data collection began. The biopotential telemeters and their receivers were placed directly under the plethysmographic chambers and were used to continuously to capture EEG, EMG, and body temperature signals. Only data collected between the hours of 10 am to 4:30 pm were used in the final analysis to control for the effects of circadian rhythm on breathing.
Test compound in vehicle or an equivalent volume of vehicle was administered via an oral gavage tube at 12 pm. Data collected between 10 am and 12 pm represented baseline (pre-drug) conditions. Data collected between […] represented post-drug conditions. Analyses of the EEG and EMG waveforms for the purpose of staging sleep-wake behavior in rats as awake, NREM sleep, and REM sleep were based on previous sleep studies involving rodents. Central apneas were defined as a respiratory cycle period that was more than or equal to twice the average cycle period during baseline recordings. Percent time in each sleep-wake state, minute volume, and central sleep apnea counts were compared between treatment groups using a two-way ANOVA (factors: drug treatment and time). Breathing data during wakefulness was not analyzed because movement prevents measurement of accurate volumes when using whole-body plethysmography. When differences were detected with ANOVA, Student-Neuman-Keuls post hoc tests were run for all main effects and interactions. Differences were considered significant when p<0.05. Values are expressed as means±SE.

physchem = conditions: organic solvent or mixture, thermodynamic from solid
Experimental: A 3 mL vial with a screw cap was charged with 50 mg of the solid salt and 1 mL of a solvent at room temperature. The mixture was heated if necessary to achieve a clear solution, in some examples producing a mixture comprising a clear portion and a melt or incompletely dissolved crystalline material. The hot mixture was cooled to room temperature. […] Solvents evaluated include acetonitrile, methyl ethyl ketone, methyl isobutyl ketone, ethyl acetate, isopropyl acetate, water, heptane, methyl-tert-butyl ether, cyclohexane, toluene, methanol, ethanol, n-propanol, isopropanol, n-butanol, 2-butanol, isoamyl alcohol, and tetrahydrofuran.

[6] = 2 minute AUC of minute volume increase vs. comparator N-[2,6-di-(n-propylamino)-[1,3]pyrimidin-4-yl]-N,O-dimethyl-hydroxylamine
[7] = peak minute ventilation increase, urethane-anesthetized rat, i.v. bolus, screening doses 0.1 and 0.3 mg/kg

CCCNc1nc(NC)nc2c(NCCC)nc(NC)nc12.Cl [Compound 4a, N^2,N^6-Dimethyl-N^4,N^8-di-n-propyl-pyrimido[5,4-d]pyrimidine-2,4,6,8-tetraamine hydrochloride]
AUC MV Inc (2 min) (ratio vs. std*) (anesthetized rat; [6]): 1.28 ratio vs. std | duration of increase in minute ventilation (anesthetized rat; anesthetized rat, i.v. bolus): approximately 2 minutes | effect on blood pressure (anesthetized rat; anesthetized rat, i.v. bolus): negligible effects | effect on minute ventilation above baseline values (anesthetized rat; anesthetized rat, i.v. bolus): increase | effect on pulse rate (anesthetized rat; anesthetized rat, i.v. bolus): negligible effects | effect on respiratory rate (anesthetized rat; anesthetized rat, i.v. bolus): stimulatory effects on respiratory rate primarily | dose dependence of effect on minute volume (anesthetized rat; based on a two-minute average): dose-dependent effect | effect compared to a reference compound as measured by area-under-curve (anesthetized rat; minute volume, two-minute average): greater effect | bioavailability [1]: 38% | half-life at 5 μM ([2]; liver microsomes): 6.85 h | melting point: 229 to 232 °C | half-life at 5 μM (in vitro): 4.55 h

CCCNc1nc(NCCC)c2nc(NCCC)nc(NCCC)c2n1.Cl [Compound 6a, N^2,N^4,N^6,N^8-Tetra-n-propyl-pyrimido[5,4-d]pyrimidine-2,4,6,8-tetraamine hydrochloride]
AUC MV Inc (2 min) (ratio vs. std*) (anesthetized rat; [6]): 0.54 ratio vs. std | half-life at 5 μM ([2]; liver microsomes): > 8.33 h | melting point: 208 to 211 °C | half-life at 5 μM (in vitro): 6.93 h

C#CCNc1nc(N(C)OC)nc2c(NCCC)nc(N(C)OC)nc12.Cl [Compound 15a, N^2,N^6-Bis(N-methoxy(N-methyl)amino)-N^4-n-propylamino-N^8-prop-2-ynylamino-pyrimido[5,4-d]pyrimidine hydrochloride]
AUC MV Inc (2 min) (ratio vs. std*) (anesthetized rat; [6]): 0.00 ratio vs. std | VE Peak (% Inc.) (anesthetized rat; [7]): 6 % Inc. | HLM T½ [2]: 1.52 h | RLM T½ [3]: 0.567 h

CCCNc1nc(NC)nc2c(NCCC)ncnc12.Cl [Compound 22a, N^2-Methyl-N^4,N^8-di-n-propylpyrimido[5,4-d]primidine-2,4,8-triamine hydrochloride]
AUC MV Inc (2 min) (ratio vs. std*) (anesthetized rat; [6]): 0.01 ratio vs. std | VE Peak (% Inc.) (anesthetized rat; [7]): 9 % Inc. | HLM T½ [2]: 0.35 h | RLM T½ [3]: 0.15 h

CCCNc1nc(NCCC(F)(F)F)nc2c(NCCC)nc(NC)nc12 [Compound 39a, hydrochloride]
AUC MV Inc (2 min) (ratio vs. std*) (anesthetized rat; [6]): 0.71 ratio vs. std | half-life at 5 μM ([2]; microsomes): 3.97 h | half-life at 5 μM ([4]; male, rat, microsomes): 2.57 h

CCCNc1nc(N2CCOCC2)nc2c(NCCC)nc(NC)nc12 [Compound 41a, N^2-Methyl-N^4N^8-di-n-propyl-6-(morpholin-4-yl)-pyrimido[5,4-d]pyrimidine-2,4,8-triamine]
AUC MV Inc (2 min) (ratio vs. std*) (anesthetized rat; rat, in vivo): 0.36 ratio vs. std | VE Peak (% Inc.) (anesthetized rat; rat, in vivo): 57 % Inc. | HLM T½ [2]: 3.12 h | RLM T½ ([4]; rat liver microsomes, 5 μM compound, NADPH, 37° C.): 1.67 h

CNc1nc(NCC2CC2)nc2c(NC)nc(NCC3CC3)nc12 [Compound 84, N^2,N^6-Bis-cyclopropylmethyl-N^4,N^8-dimethyl-pyrimido[5,4-d]pyrimidine-2,4,6,8-tetraamine]
melting point: 264 to 268 °C

CNc1nc(NCC2CC2)nc2c(NC)nc(NCC3CC3)nc12.Cl [Compound 85a, N^2,N^6-Bis-cyclopropylmethyl-N^4,N^8-dimethyl-pyrimido[5,4-d]pyrimidine-2,4,6,8-tetraamine hydrochloride]
AUC MV Inc (2 min) (ratio vs. std*) (anesthetized rat; [6]): 0.51 ratio vs. std | half-life at 5 μM ([2]; liver microsomes): 6.48 h | melting point: 264 to 265 °C | half-life at 5 μM (in vitro): 6.43 h | apnea frequency ([5]; hydrochloride): reduced; also recorded: decreased | number of apneas per hr expressed as a percent change from baseline (pre-drug) ([5]; hydrochloride): reduced; also recorded: decreased | minute volume compared to a vehicle-treated group ([5]; hydrochloride): did not cause an increase; also recorded: do not cause increases | number of apneas per hr versus vehicle ([5]; hydrochloride): reduced; also recorded: decreased | ventilation per unit time compared to vehicle ([5]; hydrochloride): did not cause an increase; also recorded: do not cause an increase | solubility (physchem; Reflux): > 50 mg/mL | solubility (physchem; r.t.): < 50 mg/mL

CCCNc1nc(NC)c2nc(C(=O)O)nc(NC)c2n1 [Compound 108, 4,8-Bis-methylamino-6-n-propylamino-pyrimido[5,4-d]pyrimidine-2-carboxylic acid]
AUC MV Inc (2 min) (ratio vs. std*) (anesthetized rat; [6]): 0.05 ratio vs. std | melting point: 218 to 220 °C

CCCNc1nc(NCC)nc2c(NCCC)nc(NCC)nc12 [Compound 137a, N^2,N^6-Diethyl-N^4,N^8-di-n-propyl-pyrimido[5,4-d]pyrimidine-2,4,6,8-tetraamine]
AUC MV Inc (2 min) (ratio vs. std*) (anesthetized rat; [6]): 0.88 ratio vs. std | half-life at 5 μM ([2]; liver microsomes): 3.78 h | half-life at 5 μM (in vitro): 1.62 h | minute volume compared to a vehicle-treated group [5]: do not cause increases | number of apneas per hr versus vehicle [5]: reduced; also recorded: decreased | ventilation per unit time compared to vehicle [5]: did not cause an increase; also recorded: do not cause an increase | minute volume compared to a vehicle-treated group ([5]; higher dose): caused an increase | minute volume compared to a vehicle-treated group ([5]; low dose): did not cause an increase | apnea frequency [5]: reduced; also recorded: decreased | number of apneas per hr expressed as a percent change from baseline (pre-drug) [5]: reduced; also recorded: decreased

CCCNc1nc(NC2CC2)nc2c(NCCC)nc(NC3CC3)nc12 [Compound 138, N^2,N^6-Dicyclopropyl-N^4,N^8-di-n-propyl-pyrimido[5,4-d]pyrimidine-2,4,6,8-tetraamine]
AUC MV Inc (2 min) (ratio vs. std*) (anesthetized rat; [6]): 0.53 ratio vs. std | half-life at 5 μM ([2]; liver microsomes): > 8.33 h | melting point: 210 to 212 °C | half-life at 5 μM (in vitro): 5.52 h
